Reference: ChEMBL document CHEMBL3714728, “Substituted benzoylamino-indan-2-carboxylic acids and related compounds” (2010)

What follows are molecules tested against T1, C-X-C chemokine receptor type 5 (Homo sapiens, UniProt P32302) (assay: Antagonist activity against human CXCR5 expressed in RBL cells assessed as inhibition of human CXCL13-induced intracellular Ca2+ level by fluo-4/AM dye based FLIPR assay).
T1 sequence (P32302 whole entry): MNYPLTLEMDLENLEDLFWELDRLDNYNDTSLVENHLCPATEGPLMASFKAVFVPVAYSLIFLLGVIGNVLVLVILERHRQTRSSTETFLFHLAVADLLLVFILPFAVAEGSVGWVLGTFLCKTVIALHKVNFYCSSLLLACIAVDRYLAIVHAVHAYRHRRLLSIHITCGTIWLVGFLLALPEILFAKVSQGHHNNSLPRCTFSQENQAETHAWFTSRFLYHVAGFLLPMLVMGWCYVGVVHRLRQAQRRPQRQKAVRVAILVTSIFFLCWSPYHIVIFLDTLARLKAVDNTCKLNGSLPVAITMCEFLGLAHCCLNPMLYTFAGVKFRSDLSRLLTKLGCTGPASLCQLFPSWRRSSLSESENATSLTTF
Type: functional, cell-based

SMILES	IC50 [nM]
Cc1cccc(C(=O)NC2(C(=O)O)Cc3ccc(C#N)cc3C2)c1OC(C)C (stereo unspecified)	20500
CC(C)Oc1c(Cl)cc(Cl)cc1S(=O)(=O)NC1(C(=O)O)Cc2ccccc2C1	16000
O=C(O)c1ccc2c(c1)CC(NC(=O)c1cccc3c1CCCC3)(C(=O)O)C2 (stereo unspecified)	> 30000
Cc1cccc(C(=O)NC2(C(=O)O)Cc3ccc(C(=O)O)cc3C2)c1OC(C)C (stereo unspecified)	> 30000
Cc1cccc(C(=O)NC2(C(=O)O)Cc3ccc(F)cc3C2)c1OC(C)C (stereo unspecified)	537
C/C=C/c1c(C)cccc1C(=O)NC1(C(=O)O)Cc2ccc(F)cc2C1 (stereo unspecified)	200
CC(C)=Cc1c(C)cccc1C(=O)NC1(C(=O)O)Cc2ccc(F)c(F)c2C1 (stereo unspecified)	5
O=C(O)C1(NS(=O)(=O)c2cccc3cccnc23)Cc2ccccc2C1	> 30000
CC(C)=Cc1c(C)cccc1C(=O)NC1(C(=O)O)Cc2c(F)ccc(F)c2C1	38
O=C(NC1(C(=O)O)Cc2ccc(F)cc2C1)c1cc(Cl)cc(Cl)c1OC1CCC1 (stereo unspecified)	268
COc1ccc2c(c1)CC(NC(=O)c1cccc3c1CCCC3)(C(=O)O)C2 (stereo unspecified)	9500
Cc1sc(C)c2c1CC(NC(=O)c1cccc3c1CCCC3)(C(=O)O)C2	2850
Cc1cc2c(cc1C)CC(NC(=O)c1cccc(C)c1OC(C)C)(C(=O)O)C2	27000
Cc1cccc(C(=O)N(C)C2(C(=O)O)Cc3ccccc3C2)c1OC(C)C	> 30000
Cc1cccc(C(=O)NC2(C(=O)O)Cc3cc(F)c(F)cc3C2)c1CC(C)C	17
Cc1cccc(C(=O)NC2(C(=O)O)Cc3ccc(C(F)(F)F)cc3C2)c1OC(C)C (stereo unspecified)	14800
O=C(NC1(C(=O)O)Cc2ccccc2C1)c1cc(F)cc2c1OCOC2	30000
Cc1cccc(C(=O)NC2(C(=O)O)Cc3ccc(C(N)=O)cc3C2)c1OC(C)C (stereo unspecified)	> 30000
C=CCOc1c(Cl)cc(Cl)cc1S(=O)(=O)NC1(C(=O)O)Cc2ccccc2C1	13000
O=C(NC1(C(=O)O)Cc2ccc(C(F)(F)F)cc2C1)c1cccc2c1CCCC2 (stereo unspecified)	6100
N#Cc1ccc2c(c1)CC(NC(=O)c1cccc3c1CCCC3)(C(=O)O)C2 (stereo unspecified)	30000
Cc1cccc(C(=O)NC2(C(=O)O)Cc3c(C)sc(C)c3C2)c1OC(C)C	17400
CC(C)=Cc1c(C)cccc1C(=O)NC1(C(=O)O)Cc2ccc(Cl)cc2C1 (stereo unspecified)	9
CC(C)=Cc1c(C)cccc1C(=O)NC1(C(=O)O)Cc2ccc(F)cc2C1 (stereo unspecified)	11
COc1ccc2c(c1)CC(NC(=O)c1cccc(C)c1OC(C)C)(C(=O)O)C2 (stereo unspecified)	18200
CC(C)=Cc1c(C)cccc1C(=O)NC1(C(=O)O)Cc2cc(F)c(F)cc2C1	15
Cc1cccc(C(=O)NC2(C(=O)O)CCSCC2)c1OC(C)C	24000
NC(=O)c1ccc2c(c1)CC(NC(=O)c1cccc3c1CCCC3)(C(=O)O)C2 (stereo unspecified)	> 30000
O=C(NC1(C(=O)O)Cc2ccc(F)cc2C1)c1cccc2c1CCCC2 (stereo unspecified)	298

Continued, values first:

IC50 [nM]	SMILES
> 30000	Cc1cccc(C(=O)NC2(C(=O)O)Cc3ccc(C(N)=O)cc3C2)c1OC1CCC1 (stereo unspecified)
232	C/C=C/c1c(C)cccc1C(=O)NC1(C(=O)O)Cc2ccccc2C1
45	CCCc1c(C)cccc1C(=O)NC1(C(=O)O)Cc2cc(F)c(F)cc2C1
> 30000	O=C(NC1(C(=O)O)Cc2ccccc2C1)c1cccc2cc[nH]c12
8200	Cc1cccc(C(=O)NC2(C(=O)O)Cc3ccccc3C2)c1/C=C/C1CC1
19300	CCCC#Cc1c(C)cccc1C(=O)NC1(C(=O)O)Cc2ccccc2C1
19600	CCOc1ccc2ccccc2c1C(=O)NC1(C(=O)O)Cc2ccccc2C1
14	Cc1cccc(C(=O)NC2(C(=O)O)Cc3ccccc3C2)c1CC(C)C
> 30000	O=C(NC1(C(=O)O)Cc2ccccc2C1)c1cccc2c1OCCO2
380	Cc1cccc(C(=O)NC2(C(=O)O)Cc3ccc(F)cc3C2)c1OC1CCC1 (stereo unspecified)
15	Cc1cccc(C(=O)NC2(C(=O)O)Cc3ccc(F)cc3C2)c1CC(C)C (stereo unspecified)
3870	CCCC(CC)c1c(C)cccc1C(=O)NC1(C(=O)O)Cc2ccccc2C1 (stereo unspecified)
13000	O=C(NC1(C(=O)O)Cc2ccccc2C1)c1ccc(F)c2ccccc12
675	O=C(NC1(C(=O)O)Cc2ccccc2C1)c1cccc2c1CCCC2
2930	Cc1cccc(C(=O)NC2(C(=O)O)Cc3ccccc3C2)c1OCC1CC1
30	Cc1cccc(C(=O)N[C@]2(C(=O)O)Cc3ccc(F)cc3C2)c1CC(C)C (single isomer, unassigned)
7	Cc1cccc(C(=O)N[C@@]2(C(=O)O)Cc3ccc(F)cc3C2)c1CC(C)C (single isomer, unassigned)
47	CCCc1c(C)cccc1C(=O)NC1(C(=O)O)Cc2ccc(F)cc2C1 (stereo unspecified)
15200	CC/C=C(/CC)c1c(C)cccc1C(=O)NC1(C(=O)O)Cc2ccccc2C1
470	Cc1cccc(C(=O)NC2(C(=O)O)Cc3ccccc3C2)c1OC1CCC1
23	CCCc1c(C)cccc1C(=O)NC1(C(=O)O)Cc2ccccc2C1

IC50 [nM]	SMILES
> 30000	O=C(NC1(C(=O)O)Cc2ccccc2C1)c1cncc2ccccc12
99	CCC/C=C\c1c(C)cccc1C(=O)NC1(C(=O)O)Cc2ccccc2C1
5450	O=C(NC1(C(=O)O)Cc2ccccc2C1)c1cccc2ccccc12
10100	Cc1cccc(C(=O)NC2(C(=O)O)Cc3ccc(C#N)cc3C2)c1OC1CCC1 (stereo unspecified)
> 30000	O=C(NC1(C(=O)O)Cc2ccccc2C1)c1cccc2cccnc12
446	CCC/C=C/c1c(C)cccc1C(=O)NC1(C(=O)O)Cc2ccccc2C1
56	Cc1cccc(C(=O)NC2(C(=O)O)Cc3ccccc3C2)c1C1=CCCC1
1050	Cc1cccc(C(=O)NC2(C(=O)O)Cc3ccccc3C2)c1C1=CCCCC1
3650	C=CCOc1c(Cl)cccc1C(=O)NC1(C(=O)O)Cc2ccccc2C1
26	CC(C)=Cc1c(C(=O)NC2(C(=O)O)Cc3ccccc3C2)cccc1C(F)(F)F
533	Cc1cccc(C(=O)NC2(C(=O)O)Cc3ccccc3C2)c1C1CCCC1
97	Cc1cccc(C(=O)NC2(C(=O)O)Cc3ccccc3C2)c1CCC1CC1
> 30000	O=C(NC1(C(=O)O)Cc2ccccc2C1)c1cnc2ccccc2n1
> 30000	Cc1cccc(C(=O)NC2(C(=O)O)Cc3ccc(C(=O)O)cc3C2)c1OC1CCC1 (stereo unspecified)
33	CC(C)=Cc1c(C)cccc1C(=O)NC1(C(=O)O)Cc2ccccc2C1
2300	CCCCCc1c(C)cccc1C(=O)NC1(C(=O)O)Cc2ccccc2C1
7800	Cc1cccc(C(=O)NC2(C(=O)O)Cc3ccc(C(F)(F)F)cc3C2)c1OC1CCC1 (stereo unspecified)
1080	CCC(C)Oc1c(C)cccc1C(=O)NC1(C(=O)O)Cc2ccccc2C1 (stereo unspecified)
> 30000	O=C(NC1(C(=O)O)Cc2ccccc2C1)c1cccc2c1NCCC2
13	Cc1cccc(C(=O)NC2(C(=O)O)Cc3ccc(F)cc3C2)c1C1=CCCC1 (stereo unspecified)
> 30000	O=C(NC1(C(=O)O)Cc2ccccc2C1)c1cccc2[nH]ccc12
